Experimental data taken from ChEMBL document CHEMBL5634070, “Assessment of the structure-activity relationship and antileukemic activity of diacylpyramide compounds as human ClpP agonists” (Eur J Med Chem, 2023).
Calls of active or inactive are those of the source.

How the values were obtained:
MV4-11 [1] = experiment: Induction of apoptosis in human MV4-11 cells incubated for 24 to 72 hrs; format: functional, cell-based; conditions: time 24-72 hrs
MV4-11 [2] = experiment: Antileukemic activity against human MV4-11 cells assessed as reduction in mitochondrial DNA content at 10 uM incubated for 24 hrs; format: functional, cell-based
NB-4 [3] = experiment: Antileukemic activity against human NB4 cells xenografted in BALB/c mouse assessed as reduction in tumor volume at 60 mg/kg,ip administrated for 30 days; format: functional, organism-based; conditions: time 30.0 day
NB-4 [4] = experiment: Inhibition of colony formation in human NB4 cells incubated for 14 days; format: functional, cell-based; conditions: time 14.0 day
MOLM-13 [5] = experiment: Inhibition of mitochondrial respiration in human MOLM-13 cells assessed as reduction in oxygen consumption rate at 10 uM incubated for 24 hrs; format: functional, cell-based
[6] = target: T1, ATP-dependent Clp protease proteolytic subunit, mitochondrial (Homo sapiens, UniProt Q16740); experiment: Agonist activity at human CLpP by measuring alpha-casein hydrolysis using alpha-casein as substrate by FITC staining based assay
T1 sequence (Q16740 whole entry): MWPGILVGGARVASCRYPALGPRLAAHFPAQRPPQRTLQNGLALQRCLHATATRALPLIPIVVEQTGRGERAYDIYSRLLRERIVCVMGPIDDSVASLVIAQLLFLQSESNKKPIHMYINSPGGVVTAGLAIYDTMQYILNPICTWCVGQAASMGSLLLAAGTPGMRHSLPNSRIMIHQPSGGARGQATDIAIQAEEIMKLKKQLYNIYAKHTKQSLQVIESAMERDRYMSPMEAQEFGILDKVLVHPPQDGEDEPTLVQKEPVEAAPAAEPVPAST

[7] = Toxicity in BALB/c mouse xenografted with human MV4-11 cells assessed as change in body weight at 60 mg/kg,ip administrated for 30 days; format: organism-based; conditions: in vivo, 720 h, time 30 day
HEL [8] = experiment: Antileukemic activity against human HEL cells assessed as reduction in mitochondrial DNA content at 10 uM incubated for 24 hrs; format: functional, cell-based
NB-4 [9] = experiment: Antileukemic activity against human NB4 cells xenografted in BALB/c mouse assessed as reduction in tumor weight at 30 mg/kg,ip administrated for 30 days; format: functional, organism-based; conditions: time 30.0 day
[10] = target: T1, ATP-dependent Clp protease proteolytic subunit, mitochondrial; experiment: Agonist activity at human CLpP by measuring alpha-casein hydrolysis using alpha-casein as substrate preincubated for 10 mins followed by substrate addition and measured after 120 mins by Coomassie brilliant blue staining based SDS-PAGE assay
MOLM-13 [11] = experiment: Antiproliferative activity against human MOLM-13 cells assessed as inhibition of cell growth at 20 uM by CCK-8 assay relative to control; format: functional
NB-4 [12] = experiment: Antileukemic activity against human NB4 cells xenografted in BALB/c mouse assessed as reduction in tumor weight at 60 mg/kg,ip administrated for 30 days; format: functional, organism-based; conditions: time 30.0 day
MV4-11 [13] = experiment: Antileukemic activity against human MV4-11 cells xenografted in BALB/c mouse assessed as reduction in tumor volume at 30 mg/kg,ip administrated for 30 days; format: functional, organism-based; conditions: time 30.0 day
Cell membrane = experiment: Induction of mitochondrial membrane potential loss in human MOLM-13 cells at 10 uM incubated upto 48 hrs by TMRE staining based assay
MV4-11 [14] = experiment: Antileukemic activity against human MV4-11 cells xenografted in BALB/c mouse assessed as reduction in tumor volume at 60 mg/kg,ip administrated for 30 days; format: functional, organism-based; conditions: time 30.0 day
[15] = target: T1, ATP-dependent Clp protease proteolytic subunit, mitochondrial; experiment: Binding affinity to CLpP in human HEL cells assessed as thermal stabilization at 10 uM at 52.9 to 78 degreeC by cellular thermal shift assay; format: cell-based; conditions: filed as agonist
MV4-11 [16] = experiment: Inhibition of mitochondrial respiration in human MV4-11 cells assessed as reduction in oxygen consumption rate at 10 uM incubated for 24 hrs; format: functional, cell-based
NB-4 [17] = experiment: Antileukemic activity against human NB4 cells assessed as downregulation of NDUFA12 protein expression incubated for 24 hrs by Western blotting analysis; format: functional, cell-based
MV4-11 [18] = experiment: Inhibition of mitochondrial respiration in human MV4-11 cells assessed as reduction in oxygen consumption rate at 5 uM incubated for 24 hrs; format: functional, cell-based
[19] = target: T1, ATP-dependent Clp protease proteolytic subunit, mitochondrial; experiment: Binding affinity to human CLpP assessed as change in melting temperature by DSF assay; conditions: filed as agonist
MOLM-13 [20] = experiment: Inhibition of mitochondrial respiration in human MOLM-13 cells assessed as reduction in oxygen consumption rate at 5 uM incubated for 24 hrs; format: functional, cell-based
MOLM-13 [21] = experiment: Antileukemic activity against human MOLM-13 cells assessed as reduction in cellular ATP content at 10 uM incubated upto 48 hrs; format: functional, cell-based
HEL [22] = experiment: Antiproliferative activity against human HEL cells assessed as inhibition of cell growth incubated for 72 hrs by CCK-8 assay; format: functional, cell-based
NB-4 [23] = experiment: Antiproliferative activity against human NB4 cells assessed as inhibition of cell growth incubated for 72 hrs by CCK-8 assay; format: functional, cell-based; conditions: NB-4, 72 h
NB-4 [24] = experiment: Inhibition of mitochondrial respiration in human NB4 cells assessed as reduction in oxygen consumption rate at 5 uM incubated for 24 hrs; format: functional, cell-based
[25] = target: T1, ATP-dependent Clp protease proteolytic subunit, mitochondrial; experiment: Binding affinity to CLpP in human MV4-11 cells assessed as thermal stabilization at 10 uM at 52.9 to 78 degreeC by cellular thermal shift assay; format: cell-based; conditions: filed as agonist
MV4-11 [26] = experiment: Antileukemic activity against human MV4-11 cells xenografted in BALB/c mouse assessed as reduction in tumor weight at 30 mg/kg,ip administrated for 30 days; format: functional, organism-based; conditions: time 30.0 day
MV4-11 [27] = experiment: Antileukemic activity against human MV4-11 cells xenografted in BALB/c mouse assessed as reduction in tumor weight at 60 mg/kg,ip administrated for 30 days; format: functional, organism-based; conditions: time 30.0 day
MV4-11 [28] = experiment: Antiproliferative activity against human MV4-11 cells assessed as inhibition of cell growth incubated for 72 hrs by CCK-8 assay; format: functional, cell-based; conditions: MV4-11, 72 h
NB-4 [29] = experiment: Antileukemic activity against human NB4 cells assessed as downregulation of SDHB protein expression incubated for 24 hrs by Western blotting analysis; format: functional, cell-based
NB-4 [30] = experiment: Inhibition of mitochondrial respiration in human NB4 cells assessed as reduction in oxygen consumption rate at 10 uM incubated for 24 hrs; format: functional, cell-based
NB-4 [31] = experiment: Induction of apoptosis in human NB4 cells incubated for 24 to 72 hrs; format: functional, cell-based; conditions: time 24-72 hrs
[32] = Toxicity in BALB/c mouse xenografted with human NB4 cells assessed as change in body weight at 60 mg/kg,ip administrated for 30 days; format: organism-based, NB-4; conditions: in vivo, 720 h, time 30 day
NB-4 [33] = experiment: Antileukemic activity against human NB4 cells assessed as downregulation of NDUFV2 protein expression incubated for 24 hrs by Western blotting analysis; format: functional, cell-based
MOLM-13 [34] = experiment: Induction of apoptosis in human MOLM-13 cells incubated for 24 to 72 hrs; format: functional, cell-based; conditions: time 24-72 hrs
MV4-11 [35] = experiment: Antiproliferative activity against human MV4-11 cells cultured as 3D cells assessed as inhibition of cell growth; format: functional, cell-based
MOLM-13 [36] = experiment: Antiproliferative activity against human MOLM-13 cells assessed as inhibition of cell growth incubated for 72 hrs by CCK-8 assay; format: functional, cell-based; conditions: MOLM-13, 72 h
NB-4 [37] = experiment: Antileukemic activity against human NB4 cells assessed as downregulation of SDHA protein expression incubated for 24 hrs by Western blotting analysis; format: functional, cell-based
NB-4 [38] = experiment: Antileukemic activity against human NB4 cells assessed as downregulation of UQCRC2 protein expression incubated for 24 hrs by Western blotting analysis; format: functional, cell-based
MOLM-13 [39] = experiment: Antileukemic activity against human MOLM-13 cells assessed as reduction in mitochondrial DNA content at 10 uM incubated for 24 hrs; format: functional, cell-based
[40] = target: T1, ATP-dependent Clp protease proteolytic subunit, mitochondrial; experiment: Binding affinity to CLpP in human MOLM-13 cells assessed as thermal stabilization at 10 uM at 52.9 to 78 degreeC by cellular thermal shift assay; format: cell-based; conditions: filed as agonist
[41] = Toxicity in BALB/c mouse xenografted with human MV4-11 cells assessed as change in body weight at 30 mg/kg,ip administrated for 30 days; format: organism-based; conditions: in vivo, 720 h, time 30 day
NB-4 [42] = experiment: Antileukemic activity against human NB4 cells assessed as downregulation of NDUFB8 protein expression incubated for 24 hrs by Western blotting analysis; format: functional, cell-based
[43] = Toxicity in BALB/c mouse xenografted with human NB4 cells assessed as change in body weight at 30 mg/kg,ip administrated for 30 days; format: organism-based, NB-4; conditions: in vivo, 720 h, time 30 day
NB-4 [44] = experiment: Antileukemic activity against human NB4 cells assessed as reduction in mitochondrial DNA content at 10 uM incubated for 24 hrs; format: functional, cell-based
NB-4 [45] = experiment: Antileukemic activity against human NB4 cells xenografted in BALB/c mouse assessed as reduction in tumor volume at 30 mg/kg,ip administrated for 30 days; format: functional, organism-based; conditions: time 30.0 day

CC[C@H](C)[C@H]1C(=O)N(Cc2ccc(OC)c3ccccc23)C[C@@H]2N(C(=O)NCc3ccc(Br)cc3)CCC(=O)N12
2.2 µM: EC50 [10]
99.6%: inhibition at 20 µM (MOLM-13 [11])
4.9 µM: IC50 (NB-4 [23])
3.3 µM: IC50 (HEL [22])
0.54 µM: EC50 [6]
2.9 µM: IC50 (MOLM-13 [36])
Non-Toxic: Activity [7] | Activity [32] | Activity [41] | Activity [43]
active: Activity (MV4-11 [1]) | Activity (MV4-11 [2]) | Activity (NB-4 [3]) | inhibition (NB-4 [4]) Dose-Dependent Effect | inhibition (MOLM-13 [5]) | Activity (HEL [8]) | Activity (NB-4 [9]) | Activity (NB-4 [12]) | Activity (MV4-11 [13]) | Activity (Cell membrane) | Activity (MV4-11 [14]) | Activity [15] | inhibition (MV4-11 [16]) | Activity (NB-4 [17]) Dose-Dependent Effect | inhibition (MV4-11 [18]) | inhibition (MOLM-13 [20]) | Activity (MOLM-13 [21]) | inhibition (NB-4 [24]) | Activity [25] | Activity (MV4-11 [26]) | Activity (MV4-11 [27]) | Activity (NB-4 [29]) Dose-Dependent Effect | inhibition (NB-4 [30]) | Activity (NB-4 [31]) | Activity (NB-4 [33]) Dose-Dependent Effect | Activity (MOLM-13 [34]) | Activity (MV4-11 [35]) Dose-Dependent Effect | Activity (NB-4 [37]) Dose-Dependent Effect | Activity (NB-4 [38]) Dose-Dependent Effect | Activity (MOLM-13 [39]) | Activity [40] | Activity (NB-4 [42]) Dose-Dependent Effect | Activity (NB-4 [44]) | Activity (NB-4 [45])
5.8 µM: IC50 (MV4-11 [28])
21.8 °C: ΔTm [19]
